From patent publication US12006314B2, “Anti-cancer nuclear hormone receptor-targeting compounds” (Nuvation Bio Inc., priority 2021, dated 2024)
pIC50: −log10 of the molar value.

How the values were obtained:
[1] = biological target: T1, ER (SK-BR-3 cells transfected with ERE plasmid and ER) (Homo sapiens, UniProt P03372); experiment: ER antagonism assay; type: cell-based; conditions: 100 nM β-Estradiol, 24 h, Dual-glo luciferase
T1 construct: expressed in transfected cells; host or cells: SK-BR-3 (transient, lipofectamine 3000)
T1 sequence (P03372 1-595): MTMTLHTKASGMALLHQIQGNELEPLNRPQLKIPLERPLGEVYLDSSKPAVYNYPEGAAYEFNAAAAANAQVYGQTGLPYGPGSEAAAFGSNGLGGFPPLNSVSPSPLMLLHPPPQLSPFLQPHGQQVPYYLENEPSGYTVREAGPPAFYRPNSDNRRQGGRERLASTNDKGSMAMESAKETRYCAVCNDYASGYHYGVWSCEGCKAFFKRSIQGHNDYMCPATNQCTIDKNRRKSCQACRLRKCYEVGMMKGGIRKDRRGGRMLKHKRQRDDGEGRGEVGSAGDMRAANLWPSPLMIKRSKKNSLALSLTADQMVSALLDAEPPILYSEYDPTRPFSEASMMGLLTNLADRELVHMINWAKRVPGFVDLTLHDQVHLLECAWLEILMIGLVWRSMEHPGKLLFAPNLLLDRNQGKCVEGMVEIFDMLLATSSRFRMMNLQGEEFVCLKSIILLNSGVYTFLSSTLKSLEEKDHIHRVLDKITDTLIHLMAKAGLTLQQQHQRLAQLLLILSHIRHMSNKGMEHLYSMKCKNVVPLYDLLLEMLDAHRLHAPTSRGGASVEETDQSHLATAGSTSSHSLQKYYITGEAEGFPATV
Experimental: ER antagonism assay: To evaluate ER antagonist activity, SK-BR-3 cells were seeded at a density of 30000 cells/well in the assay plate. The assay plate was then incubated at 37° C., 5% CO2 for 24 h. A mixture of ERE plasmid and ER in opti-MEM media was incubated with lipofectamine 3000 in Opti-MEM media and incubated at room temperature for 15 minutes. 10 μL of this transfection mix was added to each well of the assay plate and the assay plate was incubated at 37° C., 5% CO2 for 24 h. 100 nM β-Estradiol in 10 μL medium or 10 μL medium (control wells) was added to corresponding wells of assay plate and incubated at 37° C. 5% CO2 for 24 h. After the incubation period, 50 μL of Dual-glo luciferase reagent was added to the assay plate and mixed at room temperature for 20 mins on an orbital shaker, before reading out on the EnVision plate reader. 50 μL of Stop & Glo reagent was added to assay plate, mixed at room temperature for 20 minutes, and read on the Envision plate reader.

[2] = test system: MCF7 cells; experiment: Cell viability assay MCF7; type: cell-based; conditions: Homo sapiens, MCF7, 144 h; 6 days, CellTiterGlo
Experimental: (§1) Cell viability assay: LNCap, 22Rv1, MCF7, MDAMB361, T47D, and IEC6 cells were seeded at a density of 500-2000 cells/well in 96 well plates, and a ‘T0’ (timepoint 0) was included along with the assay plate. The plates were then incubated at 37° C., 5% CO2 in a cell culture incubator overnight. On the next day, the ‘T0’ plate was assayed using CellTiterGlo (Promega, Inc) according to the manufacturer's instructions. The appropriate compounds were diluted in DMSO and added to the assay plate (final DMSO concentration of 0.1-0.2%) on the next day. The assay plates were incubated for 6 days at 37° C., 5% CO2. After the incubation period, the plates were assayed using CellTiterGlo (Promega, Inc) according to the manufacturer's instructions and luminescence was read on the EnVision plate reader. Inhibition of the tested compounds was determined by the following formula: Inhibition rate (%)=(1−(RLU compound−RLU day0)/(RLU control−RLU day0))*100%. GraphPadPrism was used to analyze the data and determine GI50/IC50 values.

[3] = test system: MDAMB361 cells; experiment: Cell viability assay MDAMB361; type: cell-based; conditions: Homo sapiens, MDA-MB-361, 144 h; 6 days, CellTiterGlo
Experimental: as §1

[4] = test system: IEC6 cells; experiment: Cell viability assay IEC6; type: cell-based; conditions: Rattus norvegicus, IEC-6, 144 h; 6 days, CellTiterGlo
Experimental: as §1

[5] = biological target: T2, ER Alpha-ligand binding domain (LBD) (Homo sapiens, UniProt P03372); experiment: ER binding assay (LanthaScreen TR-FRET ER Alpha Competitive Binding); conditions: Fluormone ES2 Green tracer 3 nM, 2 h
T2 sequence (P03372 311-547 limits assumed): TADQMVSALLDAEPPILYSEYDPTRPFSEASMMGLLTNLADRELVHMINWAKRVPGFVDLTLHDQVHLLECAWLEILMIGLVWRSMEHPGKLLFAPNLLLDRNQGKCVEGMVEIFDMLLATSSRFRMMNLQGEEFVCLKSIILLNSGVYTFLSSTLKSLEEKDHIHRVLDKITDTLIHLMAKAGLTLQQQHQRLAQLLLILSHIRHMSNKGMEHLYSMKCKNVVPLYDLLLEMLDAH
Experimental: ER binding assay: ERα binding was assessed using the LanthaScreen® TR-FRET ER Alpha Competitive Binding kit from ThermoFisherScientific. In this assay, a terbium-labeled anti-GST antibody was used to indirectly label GST-tagged ER Alpha-ligand binding domain (LBD) by binding to its GST tag. Competitive binding to the ER Alpha-LBD (GST) was detected by a test compound's ability to displace a fluorescent ligand (Fluormone™ ES2 Green tracer) from the ER Alpha-LBD (GST), which results in a loss of FRET signal between the Tb-anti-GST antibody and the tracer. To assess ER binding, test compound (top dose 10 μM, 4 fold serial dilution, 8 point dose response) and controls (e.g. estradiol) were transferred to the assay plate. The Fluormone™ ES2 Green tracer (3 nM final concentration with assay buffer) was added to the assay plate. This was followed by addition of a mixture of the ER Alpha-LBD (GST) and terbium anti-GST antibody. After a 2 h incubation period at room temperature, the plate was read on the Envision plate reader and the TR-FRET ratio of 520:495 emissions were calculated and used to determine the IC50 from a dose response curve of the compound.

Row | Compound | pIC50 [1] | GI50 [2] | GI50 [3] | pIC50 [4] | pIC50 [5]
1 | CCc1cc2ncc(CN3CCN(C(=O)COc4cc(F)c([C@@H]5c6[nH]c7ccccc7c6C[C@@H](C)N5CC(C)(C)F)c(F)c4)CC3)cc2[nH]c1=O [Compound 73, 7-((4-(2-(3,5-Difluoro-4-((1R,3R)-2-(2-fluoro-2-methylpropyl)-3-methyl-2,3,4,9-tetrahydro-1H-pyrido[3,4-b]indol-1-yl)phenoxy)acetyl)piperazin-1-yl)methyl)-3-ethyl-1,5-naphthyridin-2(1H)-one] | ≥ 7.00 | ≤ 500 nM | ≤ 500 nM | < 4.52 | 
2 | CCc1cc2ncc(CN3CCN(CCOc4cc(F)c([C@@H]5c6[nH]c7ccccc7c6C[C@@H](C)N5CC(C)(C)F)c(F)c4)CC3)cc2[nH]c1=O [Compound 71, 7-((4-(2-(3,5-Difluoro-4-((1R,3R)-2-(2-fluoro-2-methylpropyl)-3-methyl-2,3,4,9-tetrahydro-1H-pyrido[3,4-b]indol-1-yl)phenoxy)ethyl)piperazin-1-yl)methyl)-3-ethyl-1,5-naphthyridin-2(1H)-one] | ≥ 7.00 | ≤ 500 nM | 500 to 5000 nM | 5.30 to 6.30 | 
3 | CCc1cc2ncc(CN3CCN(C(=O)[C@H]4CC[C@H](COc5cc(F)c([C@@H]6c7[nH]c8ccccc8c7C[C@@H](C)N6CC(C)(C)F)c(F)c5)CC4)CC3)cc2[nH]c1=O [Compound 70, 7-((4-((1r,4r)-4-((3,5-Difluoro-4-((1R,3R)-2-(2-fluoro-2-methylpropyl)-3-methyl-2,3,4,9-tetrahydro-1H-pyrido[3,4-b]indol-1-yl)phenoxy)methyl)cyclohexane-1-carbonyl)piperazin-1-yl)methyl)-3-ethyl-1,5-naphthyridin-2(1H)-one] | ≥ 7.00 | 5000 to 30000 nM | ≤ 500 nM | < 4.52 | 
4 | CCc1cc2ncc(CN3CCC(N(C)C(=O)COc4cc(F)c([C@@H]5c6[nH]c7ccccc7c6C[C@@H](C)N5CC(C)(C)F)c(F)c4)CC3)cc2[nH]c1=O [Compound 74, 2-(3,5-Difluoro-4-((1R,3R)-2-(2-fluoro-2-methylpropyl)-3-methyl-2,3,4,9-tetrahydro-1H-pyrido[3,4-b]indol-1-yl)phenoxy)-N-(1-((7-ethyl-6-oxo-5,6-dihydro-1,5-naphthyridin-3-yl)methyl)piperidin-4-yl)-N-methylacetamide] | ≥ 7.00 | ≤ 500 nM | ≤ 500 nM | 5.30 to 6.30 | 
5 | CCc1cc2ncc(CN3CCN(C(=O)CCCCCOc4cc(F)c([C@@H]5c6[nH]c7ccccc7c6C[C@@H](C)N5CC(C)(C)F)c(F)c4)CC3)cc2[nH]c1=O [Compound 61, 7-((4-(6-(3,5-Difluoro-4-((1R,3R)-2-(2-fluoro-2-methylpropyl)-3-methyl-2,3,4,9-tetrahydro-1H-pyrido[3,4-b]indol-1-yl)phenoxy)hexanoyl)piperazin-1-yl)methyl)-3-ethyl-1,5-naphthyridin-2(1H)-one] | ≥ 7.00 | ≤ 500 nM | > 30000 nM | < 4.52 | ≥ 7.00
